Experiment: xn = mol fraction of the nth substance listed
Settings: Fluid (supercritical or subcritical phases), x1 = 0.97; for speed of sound: Frequency=5 MHz, Pulse-echo method; for mass density: 283.15 K, Vibrating tube method

O=C=O [carbon dioxide] + CO
speed of sound [m/s]
Settings | 273.15 K | 283.14 K
14010 kPa | – | 615.2
20000 kPa | – | 679.8
25010 kPa | – | 725
29940 kPa | – | 763.8
34980 kPa | – | 799.7
39940 kPa | – | 831.8
39990 kPa | 875.6 | –
44950 kPa | 903.5 | –
45090 kPa | – | 862.8
49960 kPa | 929.9 | –
50150 kPa | – | 890.9
54970 kPa | 954.7 | –
55020 kPa | – | 916.3
59830 kPa | – | 940.2
60000 kPa | 978.4 | –
64950 kPa | 1000.7 | 964.2
69990 kPa | 1022.2 | –
70150 kPa | – | 987.4
74930 kPa | 1042.5 | –
74970 kPa | – | 1007.9
79680 kPa | – | 1027.1
80120 kPa | 1062.9 | –
90140 kPa | 1100 | –
90230 kPa | – | 1067.9
99950 kPa | – | 1102.7
99970 kPa | 1134.2 | –
109900 kPa | – | 1136.3
110030 kPa | 1167 | –
120080 kPa | – | 1168.8
120150 kPa | 1198.3 | –
139940 kPa | 1255 | –
140090 kPa | – | 1227.7
159790 kPa | 1307.2 | –
159980 kPa | – | 1281
180050 kPa | – | 1330.2
180530 kPa | 1357.4 | –

Settings | mass density [kg/m3]
5300 kPa | 882.11
5325 kPa | 882.5
5350 kPa | 882.83
5375 kPa | 883.08
5400 kPa | 883.4
5425 kPa | 883.67
5450 kPa | 883.98
5475 kPa | 884.26
5500 kPa | 884.47
5525 kPa | 884.8
5550 kPa | 885.04
5575 kPa | 885.37
5600 kPa | 885.62
5625 kPa | 885.95
5650 kPa | 886.26
5675 kPa | 886.49
5700 kPa | 886.8
5725 kPa | 887.09
5750 kPa | 887.39
5775 kPa | 887.67
5800 kPa | 888.01
5825 kPa | 888.24
5850 kPa | 888.54
5875 kPa | 888.77
5900 kPa | 889.08
5925 kPa | 889.31
5950 kPa | 889.55
5975 kPa | 889.92
6000 kPa | 890.13
6025 kPa | 890.33
6050 kPa | 890.62
6075 kPa | 890.95
6100 kPa | 891.19
6125 kPa | 891.52
6150 kPa | 891.86
6175 kPa | 892.08
6200 kPa | 892.35
6225 kPa | 892.62
6250 kPa | 892.89
6275 kPa | 893.14
6300 kPa | 893.45
6325 kPa | 893.63
6350 kPa | 893.89
6375 kPa | 894.18
6400 kPa | 894.43
6425 kPa | 894.67
6450 kPa | 894.92
6475 kPa | 895.17
6500 kPa | 895.37
6525 kPa | 895.62
6550 kPa | 895.96
6575 kPa | 896.11
6600 kPa | 896.41
6625 kPa | 896.62
6650 kPa | 896.9
6675 kPa | 897.02
6700 kPa | 897.4
6725 kPa | 897.56
6750 kPa | 897.77
6775 kPa | 898.06
6800 kPa | 898.37
6825 kPa | 898.6
6850 kPa | 898.87
6875 kPa | 899.09
6900 kPa | 899.3
6925 kPa | 899.5
6950 kPa | 899.65
6975 kPa | 899.77
7000 kPa | 899.79
7025 kPa | 899.99
7050 kPa | 900.2
7075 kPa | 900.45
7100 kPa | 900.68
7125 kPa | 900.92
7150 kPa | 901.15
7175 kPa | 901.36
7200 kPa | 901.57
7225 kPa | 901.84
7250 kPa | 902.09
7275 kPa | 902.25
7300 kPa | 902.49
7325 kPa | 902.74
7350 kPa | 902.98
7375 kPa | 903.16
7400 kPa | 903.45
7425 kPa | 903.64
7450 kPa | 903.9
7475 kPa | 904.05
7500 kPa | 904.3
7525 kPa | 904.46
7550 kPa | 904.69
7575 kPa | 904.94
7600 kPa | 905.11
7625 kPa | 905.36
7650 kPa | 905.61
7675 kPa | 905.8
7700 kPa | 906.04
7725 kPa | 906.26
7750 kPa | 906.42
7775 kPa | 906.67
7800 kPa | 906.89
7825 kPa | 907.08
7850 kPa | 907.32
7875 kPa | 907.57
7900 kPa | 907.73
7925 kPa | 908.06
7950 kPa | 908.15
7975 kPa | 908.39
8000 kPa | 908.68
8025 kPa | 908.88
8050 kPa | 909.06
8075 kPa | 909.27
8100 kPa | 909.45
8125 kPa | 909.7
8150 kPa | 909.86
8175 kPa | 910.09
8200 kPa | 910.33
8225 kPa | 910.56
8250 kPa | 910.76
8275 kPa | 910.96
8300 kPa | 911.17
8325 kPa | 911.44
8350 kPa | 911.66
8375 kPa | 911.83
8400 kPa | 912.07
8425 kPa | 912.24
8450 kPa | 912.4
8475 kPa | 912.59
8500 kPa | 912.85
8525 kPa | 913.06
8550 kPa | 913.26
8575 kPa | 913.46
8600 kPa | 913.66
8625 kPa | 913.87
8650 kPa | 914.07
8675 kPa | 914.29
8700 kPa | 914.39
8725 kPa | 914.62
8750 kPa | 914.82
8775 kPa | 915.04
8800 kPa | 915.26
8825 kPa | 915.43
8850 kPa | 915.64
8875 kPa | 915.83
8900 kPa | 916
8925 kPa | 916.16
8950 kPa | 916.35
8975 kPa | 916.53
9000 kPa | 916.73
9025 kPa | 916.93
9050 kPa | 917.12
9075 kPa | 917.31
9100 kPa | 917.55
9125 kPa | 917.75
9150 kPa | 917.9
9175 kPa | 918.13
9200 kPa | 918.33
9225 kPa | 918.6
9250 kPa | 918.7
9275 kPa | 918.95
9300 kPa | 919.11
9325 kPa | 919.31
9350 kPa | 919.52
9375 kPa | 919.69
9400 kPa | 919.87
9425 kPa | 920.09
9450 kPa | 920.32
9475 kPa | 920.47
9500 kPa | 920.65
9525 kPa | 920.85
9550 kPa | 921.09
9575 kPa | 921.21
9600 kPa | 921.39
9625 kPa | 921.56
9650 kPa | 921.81
9675 kPa | 921.97
9700 kPa | 922.14
9725 kPa | 922.38
9750 kPa | 922.58
9775 kPa | 922.71
9800 kPa | 922.94
9825 kPa | 923.15
9850 kPa | 923.28
9875 kPa | 923.48
9900 kPa | 923.69
9925 kPa | 923.77
9950 kPa | 924
9975 kPa | 924.18
10000 kPa | 924.34
10025 kPa | 924.53
10050 kPa | 924.71
10075 kPa | 924.83
10100 kPa | 925.08
10125 kPa | 925.24
10150 kPa | 925.41
10175 kPa | 925.57
10200 kPa | 925.75
10225 kPa | 926.06
10250 kPa | 926.06
10275 kPa | 926.3
10300 kPa | 926.47
10325 kPa | 926.69
10350 kPa | 926.79
10375 kPa | 927.06
10400 kPa | 927.17
10425 kPa | 927.34
